IC50 data for six molecules are collected here from BindingDB's records for doi:10.1016/j.bmcl.2004.01.093 (University of California Irvine, 2004).

This experiment deals with Protein phosphatase 1 catalytic subunit (Oryctolagus cuniculus). Put plainly: Inhibitory activity against protein phosphatase-1 from rabbit skeletal muscle.

Take `CNC(=O)C1C(C(=O)O)[C@@H]2C=C[C@H]1O2` (stereo partly drawn) [(1S,4R)-3-Methylcarbamoyl-7-oxa-bicyclo[2.2.1]hept-5-ene-2-carboxylatemethyl-ammonium;]: the IC50 (as a rule, the concentration at which inhibition is half-maximal) is more than 100 µM.
Regarding `N#CC[C@]12C=C[C@H](O1)[C@@H]1C(=O)OC(=O)C12` (stereo partly drawn) [((1R,6R,7S)-3,5-Dioxo-4,10-dioxa-tricyclo[5.2.1.0*2,6*]dec-8-en-1-yl)-acetonitrile], the IC50 was more than 100 µM.
The same measure for `CC(=O)NC[C@@]12CC[C@@H](O1)C1C(=O)OC(=O)[C@H]12` (stereo partly drawn) [N-((1S,2R,7R)-3,5-Dioxo-4,10-dioxa-tricyclo[5.2.1.0*2,6*]dec-1-ylmethyl)-acetamide]: more than 100 µM.
The molecule `CCOC(=O)c1ccc(NC(=O)C2C(C(=O)O)[C@@H]3C=C[C@H]2O3)cc1` (stereo partly specified) gave an IC50 of 76 µM.
Turning to `COC(=O)c1cccc(NC(=O)C2C(C(=O)O)[C@@H]3C=C[C@H]2O3)c1` (stereo partly drawn) [(1S,4R)-3-(3-Methoxycarbonyl-phenylcarbamoyl)-7-oxa-bicyclo[2.2.1]hept-5-ene-2-carboxylic acid], the midpoint of inhibition, the IC50, lay at 60 µM.
Molecule `CC(=O)NC[C@@]12C=C[C@@H](O1)C1C(=O)OC(=O)[C@H]12` (stereo partly drawn) [N-((1S,2R,7R)-3,5-Dioxo-4,10-dioxa-tricyclo[5.2.1.0*2,6*]dec-8-en-1-ylmethyl)-acetamide] gave an IC50 of more than 100 µM.
